The values below come from patent US6599924B1, “2-hetaryl-3,4-dihydro-2H-pyrrole derivatives” (Bayer Aktiengesellschaft, priority 1998, dated 2003).

Experiment in one series: not given
Conditions: not given
The melting point is the temperature of the solid-liquid transition. `Oc1ccc(C2CCC(c3sccc3Cl)=N2)cc1` (stereo not shown) [Example I-706, 2-(5-(4-Hydroxyphenyl)-Δ^2-pyrrolin-2-yl)-3-chlorothiophene] registered a melting point of 146 °C.

In the case of `CC(C)(C)c1ccc(COc2ccc(C3CCC(c4sccc4Cl)=N3)cc2)cc1` (stereo not shown) [Example I-718, 3-Chloro-2-[5-(4-(4-tert-butylbenzyloxy)-phenyl)-Δ^2-pyrrolin-2-yl]-thiophene], the melting point was 102 °C.

The next series is described as follows: log P determination.
Conditions: not given
One may read the logP as the decadic logarithm of the partition coefficient of the neutral form, usually between octanol and water. Read a high logP as higher lipophilicity. Compound `C=CCOc1ccc(C2CCC(c3sccc3Cl)=N2)cc1` (stereo not shown) [Example I-707] showed a logP of 2.29. In the case of `FC(F)(F)Oc1ccc(Oc2ccc(C3CCC(c4sccc4Cl)=N3)cc2)cc1` (stereo not shown) [Example I-710], the logP came out at 4.5. Regarding `C#CCOc1ccc(C2CCC(c3sccc3Cl)=N2)cc1` (stereo not shown) [Example I-720], the lipophilicity (logP) was found to be 1.97.

Staying with this series, now noted: pH 2.3.
As to `FC(F)(F)Oc1ccc(-c2ccc(C3CCC(c4cccs4)=N3)cc2)cc1` (stereo not shown) [Example I-7], the log partition coefficient (logP) amounted to 2.45. The same measure, in the same setting: the result for `FC(F)(F)Oc1ccc(-c2ccc(C3CCC(c4ccc(Cl)s4)=N3)cc2)cc1` (stereo not shown) [Example I-148] reads 4.21; that for `FC(F)(F)Oc1ccc(-c2ccc(C3CCC(c4sccc4Cl)=N3)cc2)cc1` (stereo not shown) [Example I-195], 4.67; that for `FC(F)(F)Oc1ccc(-c2ccc(C3CCC(c4ncccc4C(F)(F)F)=N3)cc2)cc1` (stereo not shown) [Example I-336], 5.06. With `FC(F)(F)Oc1ccc(-c2ccc(C3CCC(c4ccsc4)=N3)cc2)cc1` (stereo not shown) [Example I-430], the logP turned out to be 2.44. Consider `FC(F)(F)Oc1ccc(-c2ccc(C3CCC(c4ccc(Br)s4)=N3)cc2)cc1` (stereo not shown) [Example I-618], for which the logP stood at 4.73. Regarding `FC(F)(F)Oc1ccc(Oc2ccc(C3CCC(c4sccc4Cl)=N3)cc2)cc1` (stereo not shown) [Example I-708, 2-(5-(4-Trifluoromethoxyphenoxy-phenyl)-Δ^2-pyrrolin-2-yl)-3-chlorothiophene], the log partition coefficient (logP) worked out at 4.5. Compound `Fc1ccsc1C1=NC(c2ccc(-c3ccc(OC(F)(F)F)cc3)cc2)CC1` (stereo not shown) [Example I-868, 5-(3-fluorothien-2-yl)-3,4-dihydro-2-[4′-trifluoromethoxy]-[1,1′-biphenyl]-4-yl-2H-pyrrole] had a logP of 3.18. Compound `CC(C)(C)OC(=O)NC(CCC(=O)c1sccc1F)c1ccc(-c2ccc(OC(F)(F)F)cc2)cc1` (stereo not shown) [II-868] gave a log partition coefficient (logP) of 5.05.

The nature of another series: physchem. The following applies: pH 7.5.
Compound `c1ccc(C2CCC(c3cccnc3)=N2)cc1` (stereo not shown) [Example I-678] yielded a logP of 2.01.

Experiment in a further series: not given
Conditions: not given
The source holds these as a separate data set.
Regarding “1-dimethylamino-5-phenylpyrrolidone-2 [G (I′-678)]”, the “logp (pH=7.5)” value was 1.52.
